Laboratory results: patent publication US12459951B2, “Compounds that interact with RAS superfamily proteins for treatment of cancers, inflammatory diseases, rasopathies, and fibrotic disease” (SHY Therapeutics, LLC, priority 2022, dated 2025)

Tests used:
IL6 = experiment: IL-6 Quantification Assay (ELISA), LPS-stimulated RAW 264.7; format: cell-based; parameters: inhibition: dose or concentration left out as unconfirmed; settings: Mus musculus, RAW264.7; read-out: IL-6: % inh.
Akt phosphorylation = experiment: Akt Phosphorylation Assay (western blot), Panc-1; format: cell-based, human; settings: at 10 μM, * = activation
Outline: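 Phospho-Akt (Ser473) was measured by western blot in lysates of KRas G12D Panc-1 cells exposed to test compound for 6 h at 37 °C, either at 10 μM final with 0.3% DMSO or as serial dilutions for IC50. One format used overnight 0.5% FBS starvation followed by a 15 min pulse of 1.5 ng/ml EGF. The other used cells in 10% FBS with no stimulation.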

KRas G12D mutant = experiment: Ras GTP Binding Domain Inhibition Assay (Ras Superfamily Assay); settings: for KRas G12D mutant + SOS: % inh.: with SOS; for KRas G12D mutant: % inh.: without SOS
Outline: (§1)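 His-tagged GTPases immobilised on nickel-coated plates, pre-incubated with compound (20 μM single point, or serial dilution for IC50) 3 h at room temperature, with or without 10-30 μg/mL Sos (residues 556-1049) in the final hour. Bound Cy3- or Cy5-GTP (100 nM, 45 min) measured by fluorescence after washing.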

Rac-1 = target: T1, Rac-1 (Homo sapiens, UniProt P63000); experiment: as above; settings: read-out: Rac-1: % inh.
T1 construct: made in house
Outline: as §1

KRas wild type = experiment: as above; settings: for KRas wild type + SOS: % inh.: with SOS; for KRas wild type: % inh.: without SOS
Outline: as §1

TNF-alpha = TNF-alpha Quantification Assay (ELISA), LPS-stimulated RAW 264.7; format: cell-based; settings: Mus musculus, RAW264.7; at 10 μM; read-out: TNFα: % inh.

Structure (SMILES)	inhibition (IL6)	% inh of Akt phosphorylation in Panc-1 (Akt phosphorylation)	KRas G12D mutant + SOS: % inh. (KRas G12D mutant; 20 μM compound)	KRas G12D mutant: % inh. (KRas G12D mutant; 20 μM compound)	inhibition at 20 µM (Rac-1)	KRas wild type + SOS: % inh. (KRas wild type; 20 μM compound)	KRas wild type: % inh. (KRas wild type; 20 μM compound)	inhibition at 10 µM (TNF-alpha)	KRas G12D mutant + SOS: % inh. (KRas G12D mutant; at 20 μM)	KRas G12D mutant: % inh. (KRas G12D mutant; at 20 μM)	KRas wild type + SOS: % inh. (KRas wild type; at 20 μM)	KRas wild type: % inh. (KRas wild type; at 20 μM)
COc1ncccc1Nc1nc(-c2nccn2C)nn2cc(-c3ccn(C(C)C)n3)c(C)c12 [Compound 85, 6-(1-Isopropyl-1H-pyrazol-3-yl)-N-(2-methoxypyridin-3-yl)-5-methyl-2-(1-methyl-1H-imidazol-2-yl)pyrrolo[2,1-f][1,2,4]triazin-4-amine]	75 to 100%	D* (85-100% activation)	A (A = 1-25% inhibition)	0 (0 = 0% inhibition)	0%	0 (0 = 0% inhibition)	0 (0 = 0% inhibition)	50 to 74%				
COc1nccc(Nc2nc(-c3nccn3C)nn3cc(-c4ccn(C(C)C)n4)c(C)c23)n1 [Compound 86, 6-(1-Isopropyl-1H-pyrazol-3-yl)-N-(2-methoxypyrimidin-4-yl)-5-methyl-2-(1-methyl-1H-imidazol-2-yl)pyrrolo[2,1-f][1,2,4]triazin-4-amine]	75 to 100%	D* (85-100% activation)	C (C = 50-75% inhibition)	A (A = 1-25% inhibition)	50 to 75%	0 (0 = 0% inhibition)	B (B = 26-49% inhibition)	1 to 24%				
COCc1noc(Nc2nc(-c3nccn3C)nn3cc(-c4ccn(C(C)C)n4)c(C)c23)n1 [Compound 82, N-(6-(1-Isopropyl-1H-pyrazol-3-yl)-5-methyl-2-(1-methyl-1H-imidazol-2-yl)pyrrolo[2,1-f][1,2,4]triazin-4-yl)-3-(methoxymethyl)-1,2,4-oxadiazol-5-amine]	75 to 100%	D* (85-100% activation)	B (B = 26-49% inhibition)	C (C = 50-75% inhibition)	26 to 49%	0 (0 = 0% inhibition)	C (C = 50-75% inhibition)	25 to 49%				
COc1cc(Nc2nc(-c3nccn3C)nn3cc(-c4ccn(C(C)C)n4)c(C)c23)ccn1 [Compound 87, 6-(1-Isopropyl-1H-pyrazol-3-yl)-N-(2-methoxypyridin-4-yl)-5-methyl-2-(1-methyl-1H-imidazol-2-yl)pyrrolo[2,1-f][1,2,4]triazin-4-amine]	0%	D* (85-100% activation)	A (A = 1-25% inhibition)	A (A = 1-25% inhibition)	0%	0 (0 = 0% inhibition)	0 (0 = 0% inhibition)	0%				
Cc1c(-c2ccn(C(C)C)n2)cn2nc(-c3nccn3C)nc(Nc3cn(C(C)C)nn3)c12 [Compound 78, N-(1-Isopropyl-1H-1,2,3-triazol-4-yl)-6-(1-isopropyl-1H-pyrazol-3-yl)-5-methyl-2-(1-methyl-1H-imidazol-2-yl)pyrrolo[2,1-f][1,2,4]triazin-4-amine]	25 to 49%	D* (85-100% activation)	D (D = 76-100% inhibition)	D (D = 76-100% inhibition)	76 to 100%	D (D = 76-100% inhibition)	D (D = 76-100% inhibition)	25 to 49%				
COc1ncc(Nc2nc(-c3nccn3C)nn3cc(-c4ccn(C(C)C)n4)c(C)c23)cn1 [Compound 80, 6-(1-Isopropyl-1H-pyrazol-3-yl)-N-(2-methoxypyrimidin-5-yl)-5-methyl-2-(1-methyl-1H-imidazol-2-yl)pyrrolo[2,1-f][1,2,4]triazin-4-amine]	0%	D* (85-100% activation)	0 (0 = 0% inhibition)	A (A = 1-25% inhibition)	1 to 25%	A (A = 1-25% inhibition)	A (A = 1-25% inhibition)	0%				
COc1cnc(Nc2nc(-c3nccn3C)nn3cc(-c4ccn(C(C)C)n4)c(C)c23)cn1 [Compound 83, 6-(1-Isopropyl-1H-pyrazol-3-yl)-N-(5-methoxypyrazin-2-yl)-5-methyl-2-(1-methyl-1H-imidazol-2-yl)pyrrolo[2,1-f][1,2,4]triazin-4-amine]	25 to 49%	D* (85-100% activation)	D (D = 76-100% inhibition)	D (D = 76-100% inhibition)	76 to 100%	C (C = 50-75% inhibition)	D (D = 76-100% inhibition)	1 to 24%				
COc1cccc(-c2cn3nc(-c4nccn4C)nc(N[C@@H]4CC[C@H](OC)C4)c3c2-c2ccccc2)c1C (racemic) [Compound 271, rac 6-(3-Methoxy-2-methylphenyl)-N-((1R,3S)-3-methoxycyclopentyl)-2-(1-methyl-1H-imidazol-2-yl)-5-phenylpyrrolo[2,1-f][1,2,4]triazin-4-amine]	75 to 100%	D (85-100% inhibition)			26 to 49%			75 to 100%	B (B = 26-49% inhibition)	B (B = 26-49% inhibition)	A (A = 1-25% inhibition)	B (B = 26-49% inhibition)
Cc1c(-c2ccn(C(C)C)n2)cn2nc(-c3nccn3C)nc(Nc3cnn(C(C)C)n3)c12 [Compound 77, 6-(1-Isopropyl-1H-pyrazol-3-yl)-N-(2-isopropyl-2H-1,2,3-triazol-4-yl)-5-methyl-2-(1-methyl-1H-imidazol-2-yl)pyrrolo[2,1-f][1,2,4]triazin-4-amine]	1 to 24%	D* (85-100% activation)	B (B = 26-49% inhibition)	D (D = 76-100% inhibition)	76 to 100%	C (C = 50-75% inhibition)	C (C = 50-75% inhibition)	25 to 49%				
COc1cccnc1Nc1nc(-c2nccn2C)nn2cc(-c3ccn(C(C)C)n3)c(C)c12 [Compound 89, 6-(1-Isopropyl-1H-pyrazol-3-yl)-N-(3-methoxypyridin-2-yl)-5-methyl-2-(1-methyl-1H-imidazol-2-yl)pyrrolo[2,1-f][1,2,4]triazin-4-amine]	75 to 100%	D* (85-100% activation)	D (D = 76-100% inhibition)	D (D = 76-100% inhibition)	76 to 100%	D (D = 76-100% inhibition)	D (D = 76-100% inhibition)	25 to 49%				
Cc1c(-c2ccn(C(C)C)n2)cn2nc(-c3nccn3C)nc(Nc3nnc(C4CC4)[nH]3)c12 [Compound 81, N-(5-Cyclopropyl-4H-1,2,4-triazol-3-yl)-6-(1-isopropyl-1H-pyrazol-3-yl)-5-methyl-2-(1-methyl-1H-imidazol-2-yl)pyrrolo[2,1-f][1,2,4]triazin-4-amine]	75 to 100%	D* (85-100% activation)	C (C = 50-75% inhibition)	D (D = 76-100% inhibition)	76 to 100%	B (B = 26-49% inhibition)	C (C = 50-75% inhibition)	50 to 74%				
COc1cccc(-c2cn3nc(-c4nccn4C)nc(N[C@@H]4CC[C@@H](OC)C4)c3c2-c2ccccc2)c1C (racemic) [Compound 270, rac 6-(3-Methoxy-2-methylphenyl)-N-((1R,3R)-3-methoxycyclopentyl)-2-(1-methyl-1H-imidazol-2-yl)-5-phenylpyrrolo[2,1-f][1,2,4]triazin-4-amine]	75 to 100%	D (85-100% inhibition)			26 to 49%			75 to 100%	B (B = 26-49% inhibition)	B (B = 26-49% inhibition)	A (A = 1-25% inhibition)	B (B = 26-49% inhibition)
Cc1c(-c2ccn(C(C)C)n2)cn2nc(-c3nccn3C)nc(Nc3ccn(C4CC4)n3)c12 [Compound 84, N-(1-Cyclopropyl-1H-pyrazol-3-yl)-6-(1-isopropyl-1H-pyrazol-3-yl)-5-methyl-2-(1-methyl-1H-imidazol-2-yl)pyrrolo[2,1-f][1,2,4]triazin-4-amine]	25 to 49%	D* (85-100% activation)			76 to 100%			0%				
